Values joined by “and” are separate entries in the source; they are usually repeats but may differ in a detail not shown here. Equal entries are not always repeated.
Columns and labels:
[1] = molecular target: SRPK2 (Homo sapiens, UniProt P78362); details: 1 μM; Run 1, Run 2
[2] = molecular target: PAK1 (Homo sapiens, UniProt Q13153); details: 1 μM; Run 1, Run 2
[3] = molecular target: T1, EPHB1 (Homo sapiens, UniProt P54762); experiment: biochemical; details: read-out: % enzyme activity, 1 μM; Run 1, Run 2
T1 sequence (P54762 18-984): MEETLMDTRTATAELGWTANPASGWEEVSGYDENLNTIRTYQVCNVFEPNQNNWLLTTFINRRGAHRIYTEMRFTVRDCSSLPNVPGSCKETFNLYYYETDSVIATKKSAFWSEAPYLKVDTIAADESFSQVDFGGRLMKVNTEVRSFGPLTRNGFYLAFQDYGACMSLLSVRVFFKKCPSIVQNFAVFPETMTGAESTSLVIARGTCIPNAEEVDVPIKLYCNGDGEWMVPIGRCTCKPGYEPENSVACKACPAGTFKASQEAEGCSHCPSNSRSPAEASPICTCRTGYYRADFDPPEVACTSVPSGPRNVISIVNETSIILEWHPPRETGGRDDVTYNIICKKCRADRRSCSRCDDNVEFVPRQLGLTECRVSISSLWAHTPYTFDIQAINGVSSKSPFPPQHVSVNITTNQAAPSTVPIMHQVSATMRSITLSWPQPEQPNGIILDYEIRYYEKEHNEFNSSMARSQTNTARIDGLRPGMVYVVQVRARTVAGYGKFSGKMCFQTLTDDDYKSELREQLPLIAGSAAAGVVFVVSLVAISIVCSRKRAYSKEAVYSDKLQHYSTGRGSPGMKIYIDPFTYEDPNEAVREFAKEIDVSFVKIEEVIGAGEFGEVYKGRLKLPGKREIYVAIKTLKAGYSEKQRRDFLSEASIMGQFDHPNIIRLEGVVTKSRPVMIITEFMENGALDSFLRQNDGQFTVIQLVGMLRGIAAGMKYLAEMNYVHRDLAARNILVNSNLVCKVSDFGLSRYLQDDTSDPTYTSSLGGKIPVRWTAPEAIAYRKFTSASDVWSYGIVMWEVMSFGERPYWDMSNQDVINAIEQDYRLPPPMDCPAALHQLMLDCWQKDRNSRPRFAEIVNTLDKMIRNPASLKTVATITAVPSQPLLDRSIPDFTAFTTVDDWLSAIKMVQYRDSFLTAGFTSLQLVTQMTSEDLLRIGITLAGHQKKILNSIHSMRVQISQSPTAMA

[4] = molecular target: CDK4/cyclin D3 (Homo sapiens, UniProt P11802); experiment: biochemical; details: read-out: % enzyme activity, 1 μM; Run 1, Run 2
[5] = molecular target: PKCb2 (Homo sapiens, UniProt P05771); details: 1 μM; Run 1, Run 2
[6] = molecular target: CAMK1b (Homo sapiens, UniProt Q6P2M8); details: 1 μM; Run 1, Run 2
[7] = molecular target: SYK (Homo sapiens, UniProt P43405); experiment: biochemical; details: read-out: % enzyme activity, 1 μM; Run 1, Run 2
[8] = molecular target: CAMK1d (Homo sapiens, UniProt Q8IU85); experiment: biochemical; details: read-out: % enzyme activity, 1 μM; Run 1, Run 2
[9] = molecular target: T2, MEKK2 (Homo sapiens, UniProt Q9Y2U5); details: 1 μM; Run 1, Run 2
T2 sequence (Q9Y2U5 1-619): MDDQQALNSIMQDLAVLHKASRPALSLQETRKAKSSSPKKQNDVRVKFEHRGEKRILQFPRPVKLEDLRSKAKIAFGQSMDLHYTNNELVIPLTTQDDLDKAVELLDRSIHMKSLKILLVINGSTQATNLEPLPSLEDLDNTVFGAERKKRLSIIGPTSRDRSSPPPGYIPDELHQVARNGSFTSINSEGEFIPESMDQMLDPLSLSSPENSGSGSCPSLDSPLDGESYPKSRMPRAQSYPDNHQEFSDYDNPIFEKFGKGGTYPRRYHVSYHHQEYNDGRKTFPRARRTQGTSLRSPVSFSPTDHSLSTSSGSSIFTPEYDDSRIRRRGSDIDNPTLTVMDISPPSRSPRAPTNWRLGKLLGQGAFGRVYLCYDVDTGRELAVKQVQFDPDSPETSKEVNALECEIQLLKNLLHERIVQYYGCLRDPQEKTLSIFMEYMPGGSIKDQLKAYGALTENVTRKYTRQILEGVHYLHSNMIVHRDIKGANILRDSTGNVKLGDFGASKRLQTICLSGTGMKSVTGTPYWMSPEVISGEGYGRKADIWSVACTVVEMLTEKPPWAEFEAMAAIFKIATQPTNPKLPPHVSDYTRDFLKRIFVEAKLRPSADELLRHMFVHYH

[10] = system: ARAF

SRPK2, sequence (P78362 whole entry): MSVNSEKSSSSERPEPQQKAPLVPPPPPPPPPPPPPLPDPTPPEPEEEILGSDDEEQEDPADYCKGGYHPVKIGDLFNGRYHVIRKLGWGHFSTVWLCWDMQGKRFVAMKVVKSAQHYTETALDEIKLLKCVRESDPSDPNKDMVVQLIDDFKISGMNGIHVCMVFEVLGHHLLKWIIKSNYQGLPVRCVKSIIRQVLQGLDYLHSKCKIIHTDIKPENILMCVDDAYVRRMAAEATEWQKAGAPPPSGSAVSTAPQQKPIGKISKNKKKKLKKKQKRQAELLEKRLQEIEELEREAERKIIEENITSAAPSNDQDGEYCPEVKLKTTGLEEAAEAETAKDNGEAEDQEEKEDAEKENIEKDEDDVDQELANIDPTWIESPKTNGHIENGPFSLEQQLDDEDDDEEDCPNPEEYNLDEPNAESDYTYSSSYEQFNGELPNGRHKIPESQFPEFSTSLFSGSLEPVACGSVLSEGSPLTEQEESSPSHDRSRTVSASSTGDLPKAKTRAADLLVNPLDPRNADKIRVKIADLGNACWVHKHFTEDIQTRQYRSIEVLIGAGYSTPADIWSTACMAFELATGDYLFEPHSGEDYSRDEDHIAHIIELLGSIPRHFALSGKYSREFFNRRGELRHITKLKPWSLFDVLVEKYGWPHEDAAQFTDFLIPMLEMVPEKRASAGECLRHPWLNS
CDK4/cyclin D3, sequence (P11802 whole entry): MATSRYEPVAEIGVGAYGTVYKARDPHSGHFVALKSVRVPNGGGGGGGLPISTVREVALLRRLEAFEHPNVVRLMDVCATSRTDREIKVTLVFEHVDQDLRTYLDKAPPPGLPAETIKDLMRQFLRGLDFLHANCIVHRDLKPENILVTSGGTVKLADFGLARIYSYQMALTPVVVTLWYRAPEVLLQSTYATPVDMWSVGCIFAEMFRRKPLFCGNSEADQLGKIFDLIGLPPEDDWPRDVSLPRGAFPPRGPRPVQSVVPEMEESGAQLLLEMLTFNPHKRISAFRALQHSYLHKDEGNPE
CDK4/cyclin D3, sequence (P30281 whole entry partner): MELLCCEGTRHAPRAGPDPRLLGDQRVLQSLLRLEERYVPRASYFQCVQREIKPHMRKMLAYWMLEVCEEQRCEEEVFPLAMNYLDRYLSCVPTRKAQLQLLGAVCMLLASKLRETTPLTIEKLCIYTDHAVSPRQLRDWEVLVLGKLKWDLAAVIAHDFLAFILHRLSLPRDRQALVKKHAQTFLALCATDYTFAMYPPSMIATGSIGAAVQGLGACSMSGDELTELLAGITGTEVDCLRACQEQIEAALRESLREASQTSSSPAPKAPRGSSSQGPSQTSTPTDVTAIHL
CAMK1d, sequence (Q8IU85 whole entry): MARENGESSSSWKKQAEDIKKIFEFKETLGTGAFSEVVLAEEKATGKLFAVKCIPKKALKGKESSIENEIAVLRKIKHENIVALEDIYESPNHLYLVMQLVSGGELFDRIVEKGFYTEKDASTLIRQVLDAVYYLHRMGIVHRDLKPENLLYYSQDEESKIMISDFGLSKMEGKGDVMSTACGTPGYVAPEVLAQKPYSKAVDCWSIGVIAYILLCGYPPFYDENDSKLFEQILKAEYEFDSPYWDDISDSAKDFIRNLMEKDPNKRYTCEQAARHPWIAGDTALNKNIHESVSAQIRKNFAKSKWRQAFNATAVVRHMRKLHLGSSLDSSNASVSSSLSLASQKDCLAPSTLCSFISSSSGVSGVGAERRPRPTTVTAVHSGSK
PAK1, sequence (Q13153 whole entry): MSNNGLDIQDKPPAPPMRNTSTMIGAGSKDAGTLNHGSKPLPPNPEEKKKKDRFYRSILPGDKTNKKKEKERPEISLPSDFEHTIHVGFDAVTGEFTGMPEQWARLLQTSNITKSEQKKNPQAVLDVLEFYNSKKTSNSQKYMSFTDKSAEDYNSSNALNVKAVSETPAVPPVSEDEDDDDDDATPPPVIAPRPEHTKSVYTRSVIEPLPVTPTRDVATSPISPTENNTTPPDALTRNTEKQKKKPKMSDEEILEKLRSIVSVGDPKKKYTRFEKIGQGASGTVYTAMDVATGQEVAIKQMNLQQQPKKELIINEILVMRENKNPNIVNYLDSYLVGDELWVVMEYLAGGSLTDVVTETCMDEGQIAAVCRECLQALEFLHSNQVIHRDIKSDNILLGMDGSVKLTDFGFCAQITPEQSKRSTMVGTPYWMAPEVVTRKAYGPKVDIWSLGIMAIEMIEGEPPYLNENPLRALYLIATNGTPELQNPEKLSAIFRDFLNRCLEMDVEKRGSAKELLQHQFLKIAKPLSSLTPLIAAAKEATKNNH
CAMK1b, sequence (Q6P2M8 whole entry): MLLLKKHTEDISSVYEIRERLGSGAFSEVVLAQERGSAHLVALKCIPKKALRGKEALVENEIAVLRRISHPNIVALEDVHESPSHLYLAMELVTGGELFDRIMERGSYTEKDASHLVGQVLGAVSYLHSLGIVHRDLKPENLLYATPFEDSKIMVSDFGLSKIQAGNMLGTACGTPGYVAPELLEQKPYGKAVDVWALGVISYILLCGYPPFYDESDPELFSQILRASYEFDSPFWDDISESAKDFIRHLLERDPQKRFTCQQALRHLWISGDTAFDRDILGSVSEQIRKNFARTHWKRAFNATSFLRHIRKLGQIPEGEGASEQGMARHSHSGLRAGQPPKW
PKCb2, sequence (P05771 1-673 isoform P05771-2): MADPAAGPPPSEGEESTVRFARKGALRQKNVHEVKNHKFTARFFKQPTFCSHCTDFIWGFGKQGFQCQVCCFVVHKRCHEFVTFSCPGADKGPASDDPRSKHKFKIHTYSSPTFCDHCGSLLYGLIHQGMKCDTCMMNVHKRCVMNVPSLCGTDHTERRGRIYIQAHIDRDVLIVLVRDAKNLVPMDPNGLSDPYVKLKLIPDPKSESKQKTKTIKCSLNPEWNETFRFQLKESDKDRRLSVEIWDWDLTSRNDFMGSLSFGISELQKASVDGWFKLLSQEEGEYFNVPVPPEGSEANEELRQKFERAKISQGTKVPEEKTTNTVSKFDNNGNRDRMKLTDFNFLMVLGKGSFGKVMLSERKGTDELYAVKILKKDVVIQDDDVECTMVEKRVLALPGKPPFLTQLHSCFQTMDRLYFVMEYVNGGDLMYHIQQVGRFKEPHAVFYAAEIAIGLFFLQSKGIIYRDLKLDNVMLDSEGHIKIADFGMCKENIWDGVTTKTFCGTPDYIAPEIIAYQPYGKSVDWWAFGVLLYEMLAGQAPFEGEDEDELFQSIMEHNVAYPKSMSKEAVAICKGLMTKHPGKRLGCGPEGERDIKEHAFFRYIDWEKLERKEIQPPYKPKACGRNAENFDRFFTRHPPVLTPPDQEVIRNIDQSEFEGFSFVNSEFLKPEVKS

For `COc1cc(-c2cncc(-c3ccc(N4CCN(C)CC4)cc3)c2C)cc(F)c1C(N)=O` [Compound 26a, 2-Fluoro-6-methoxy-4-(4-methyl-5-(4-(4-methylpiperazin-1-yl)phenyl)pyridin-3-yl)benzamide], the “% enzyme activity” value [1] was 94.13%, the “% enzyme activity” value [2] was 102.29% and the remaining activity at 1 µM [3] was 95.5%. For the same compound, the remaining activity at 1 µM [4] was 101%, the “% enzyme activity” value [5] was 106.51% and the “% enzyme activity” value [6] was 95.63%. For the same compound, the remaining activity at 1 µM [7] was 101%, the remaining activity at 1 µM [8] was 98.5% and the “% enzyme activity” value [9] was 95.51%. For the same compound, the % enzyme activity at 1 μM [10] was 29.3% and 28.8%.
With `COc1cc(-c2cncc(-c3ccc(N4C[C@@H](C)N(C)[C@@H](C)C4)cc3)c2C)cc(F)c1C(N)=O` [Compound 26c, 2-Fluoro-6-methoxy-4-(4-methyl-5-(4-((3R,5S)-3,4,5-trimethylpiperazin-1-yl)phenyl)pyridin-3-yl)benzamide] the “% enzyme activity” value [1] was 115.95%, the “% enzyme activity” value [2] was 100.98% and the remaining activity at 1 µM [3] was 92.6%. For the same compound, the remaining activity at 1 µM [4] was 96%, the “% enzyme activity” value [5] was 97.56% and the “% enzyme activity” value [6] was 99.02%. The remaining activity at 1 µM [7] was 102%, the remaining activity at 1 µM [8] was 99.9% and the “% enzyme activity” value [9] was 100.62%. For the same compound, the % enzyme activity at 1 μM [10] was 48.1% and 43.3%.

Reference: PMC8213057, “Targeting ALK2: An Open Science Approach to Developing Therapeutics for the Treatment of Diffuse Intrinsic Pontine Glioma” (Journal of Medicinal Chemistry, 2020)
